Experimental data as given in article PMC7827648 (Molecules, 2021).

Tests used:
[1] = test system: RD (rhabdomyosarcoma) cells; test: Cytotoxicity, MTT assay, RD cells; assay type: cell-based; details: Homo sapiens, read-out: IC50, 50% inhibition of the cell population growth, 72 h, mean ± SD
Experimental: (§1) The cytotoxicity of the newly synthesized Schiff bases was evaluated in vitro in a panel of cultured tumor cells, assessing cell viability at scalar concentrations of the test compounds (≤500 μM) by MTT (i.e., 3-(4,5-dimethylthiazol-2-yl)-2,5-diphenyltetrazolium bromide) and Alamar Blue assays, using doxorubicin as the positive controls. Most of the compounds were tested against RD (rhabdomyosarcoma), HCT116 (intestinal carcinoma), HeLa (adenocarcinoma of the cervix uterus) and A549 (lung adenocarcinoma) cell lines, whereas five representative compounds of the subsets were tested also against K562 (chronic myelogenous leukemia) tumor cells.
(§2) The experiments were carried out in triplicate.

[2] = test system: HCT116 (intestinal carcinoma) cells; test: Cytotoxicity, MTT assay, HCT116 cells; assay type: cell-based; details: Homo sapiens, HCT-116, read-out: IC50, 50% inhibition of the cell population growth, 72 h, mean ± SD
Experimental: as §1, §2

[3] = test system: HeLa (adenocarcinoma of the cervix uterus) cells; test: Cytotoxicity, MTT assay, HeLa cells; assay type: cell-based; details: Homo sapiens, read-out: IC50, 50% inhibition of the cell population growth, 72 h, mean ± SD
Experimental: as §1, §2

[4] = test system: A549 (lung adenocarcinoma) cells; test: Cytotoxicity, MTT assay, A549 cells; assay type: cell-based; details: Homo sapiens, read-out: IC50, 50% inhibition of the cell population growth, 72 h, mean ± SD
Experimental: as §1, §2

[5] = target: human acetylcholinesterase (AChE) (Homo sapiens, UniProt P22303); test: biochemical; details: for inhibition mechanism on hAChE: Michaelis-Menten / Lineweaver-Burk plots; for Ki: complete kinetics, human AChE, read-out: inhibition constant (Ki) hAChE; for IC50: human recombinant AChE, pH 8.0, mean ± SD (n = 3), read-out: IC50 hAChE; for inhibition at 10 µM: mean ± SD (n = 3), read-out: % inhibition hAChE
Experimental: (§3) The ChE inhibition assay was carried out using the Ellman’s spectrophotometric method [23], as applied to the 96-well plate technique [24] on a Tecan Infinite M1000 Pro instrument (Cernusco s.N., Italy).

[6] = target: T1, human butyrylcholinesterase (BChE) (Homo sapiens, UniProt P06276); test: BChE inhibition, Ellman's method; assay type: biochemical; details: mean ± SD (n = 3), n.i. = no inhibition; for % inhibition hBChE: at 10 μM
T1 construct: BChE from human serum (50 U/mg); from tissue; host or cells: human serum
Experimental: as §3

[7] = target: T2, β-amyloid (Aβ)1–40 self-aggregation (Homo sapiens, UniProt P05067); test: Inhibition of self-induced Aβ40 aggregation, thioflavin T fluorescence; assay type: biochemical; details: for inhibition at 100 µM / IC50: Aβ40 30 μM, 2% HFIP, ThT, mean ± SD (n = 3); for IC50: PBS pH 7.4, 2 h
T2 construct: self-aggregation of Aβ peptides 1–40 (Aβ40)
Experimental: Molecules able to inhibit simultaneously AChE and β-amyloid (Aβ) aggregation/neurotoxicity may have potential as drugs for the treatment of AD [14]. Herein, the new DHPPIQ derivatives were evaluated for the inhibitory effects on the self-aggregation of Aβ peptides 1–40 (Aβ40), through a test based on the measurement of thioflavin T (ThT) fluorescence. Quercetin, which is a strong inhibitor of in vitro Aβ self-aggregation, was used as a positive control.
Each compound was initially tested at a 100-μM concentration. […] […].
According to an already reported 96-well plate procedure, the test compounds at 100 μM were incubated with Aβ40 (30 μM) and 2% HFIP (1,1,1,3,3,3-hexafluoro-2-propanol), used as aggregation enhancer in PBS pH 7.4 for 2 h at room temperature. After the addition of ThT, the fluorescence was read at the 440/485 nm excitation/emission wavelength. Experiments were performed in triplicate, and the % inhibition values calculated as mean ± SD.

human MAO A = target: T3, human MAO A (Homo sapiens, UniProt P21397); test: biochemical; details: human recombinant MAO A, kynuramine, mean ± SD (n = 3); read-out: IC50 hMAO A
T3 construct: host or cells: baculovirus-infected insect cells (microsomes)
T3 sequence (P21397 1-527): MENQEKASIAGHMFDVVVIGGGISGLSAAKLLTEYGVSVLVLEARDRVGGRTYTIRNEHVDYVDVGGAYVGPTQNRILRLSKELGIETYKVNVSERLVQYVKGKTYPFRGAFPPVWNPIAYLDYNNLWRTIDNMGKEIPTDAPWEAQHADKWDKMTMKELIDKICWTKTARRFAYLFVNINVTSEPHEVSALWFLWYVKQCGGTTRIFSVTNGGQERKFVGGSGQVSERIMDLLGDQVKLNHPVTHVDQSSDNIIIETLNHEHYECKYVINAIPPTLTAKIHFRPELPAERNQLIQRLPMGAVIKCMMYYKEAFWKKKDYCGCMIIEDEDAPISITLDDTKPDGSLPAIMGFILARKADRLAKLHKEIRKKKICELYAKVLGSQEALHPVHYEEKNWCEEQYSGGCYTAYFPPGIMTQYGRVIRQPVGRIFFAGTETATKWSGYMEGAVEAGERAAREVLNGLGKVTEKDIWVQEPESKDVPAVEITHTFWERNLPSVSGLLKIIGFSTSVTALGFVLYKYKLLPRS
Experimental: (§4) The inhibition of human recombinant MAO A (250 U/mg) and B (59 U/mg; microsomes from baculovirus-infected insect cells) was evaluated using the reported 96-well plate technique [12]. on a Tecan Infinite M1000 Pro instrument (Cernusco s.N., Italy). […] After addition of the enzyme and 30 min of incubation, NaOH was added and the fluorescence read at the 310/400 excitation/emission wavelength.

human MAO B = target: T4, human MAO B (Homo sapiens, UniProt P27338); test: biochemical; details: at 10 μM, mean ± SD (n = 3); read-out: % inhibition hMAO B
T4 construct: host or cells: baculovirus-infected insect cells (microsomes)
T4 sequence (P27338 1-520): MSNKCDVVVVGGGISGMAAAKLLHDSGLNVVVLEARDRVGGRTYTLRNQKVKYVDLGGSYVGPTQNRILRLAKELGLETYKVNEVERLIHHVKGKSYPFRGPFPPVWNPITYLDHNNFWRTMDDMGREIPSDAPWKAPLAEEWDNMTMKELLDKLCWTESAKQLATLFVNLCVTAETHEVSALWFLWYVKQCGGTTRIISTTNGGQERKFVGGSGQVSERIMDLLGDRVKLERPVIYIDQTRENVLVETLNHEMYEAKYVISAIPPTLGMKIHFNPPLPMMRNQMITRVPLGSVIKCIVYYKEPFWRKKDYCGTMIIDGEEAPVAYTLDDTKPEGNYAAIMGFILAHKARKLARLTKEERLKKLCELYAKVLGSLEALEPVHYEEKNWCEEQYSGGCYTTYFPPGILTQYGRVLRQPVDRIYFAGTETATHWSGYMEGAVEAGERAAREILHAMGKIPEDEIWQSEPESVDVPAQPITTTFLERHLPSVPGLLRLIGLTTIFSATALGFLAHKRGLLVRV
Experimental: as §4

in vitro = details: human
[8] = test system: K562 (chronic myelogenous leukemia) cells; test: Cytotoxicity, Alamar Blue (resazurin) assay, K562 cells; assay type: cell-based; details: Homo sapiens, read-out: IC50, 50% inhibition of the cell population growth, 72 h, mean ± SD
Experimental: as §1, §2

Sequence of human acetylcholinesterase (AChE) (P22303 32-614): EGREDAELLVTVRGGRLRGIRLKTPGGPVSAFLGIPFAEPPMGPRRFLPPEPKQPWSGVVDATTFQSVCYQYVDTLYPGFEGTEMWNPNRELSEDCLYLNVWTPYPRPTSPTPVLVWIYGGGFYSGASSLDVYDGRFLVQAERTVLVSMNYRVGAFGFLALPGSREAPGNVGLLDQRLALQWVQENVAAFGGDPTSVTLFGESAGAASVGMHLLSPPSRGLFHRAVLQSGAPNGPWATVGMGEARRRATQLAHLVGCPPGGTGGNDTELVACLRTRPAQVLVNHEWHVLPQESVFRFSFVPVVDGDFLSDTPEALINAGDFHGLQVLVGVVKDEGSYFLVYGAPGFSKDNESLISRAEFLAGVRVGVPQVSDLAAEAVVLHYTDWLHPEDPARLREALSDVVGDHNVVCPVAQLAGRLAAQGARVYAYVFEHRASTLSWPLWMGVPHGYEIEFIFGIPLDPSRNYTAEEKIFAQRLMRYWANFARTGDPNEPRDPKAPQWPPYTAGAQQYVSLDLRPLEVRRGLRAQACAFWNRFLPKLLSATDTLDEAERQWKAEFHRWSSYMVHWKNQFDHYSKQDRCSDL
T1 sequence (P06276 29-602): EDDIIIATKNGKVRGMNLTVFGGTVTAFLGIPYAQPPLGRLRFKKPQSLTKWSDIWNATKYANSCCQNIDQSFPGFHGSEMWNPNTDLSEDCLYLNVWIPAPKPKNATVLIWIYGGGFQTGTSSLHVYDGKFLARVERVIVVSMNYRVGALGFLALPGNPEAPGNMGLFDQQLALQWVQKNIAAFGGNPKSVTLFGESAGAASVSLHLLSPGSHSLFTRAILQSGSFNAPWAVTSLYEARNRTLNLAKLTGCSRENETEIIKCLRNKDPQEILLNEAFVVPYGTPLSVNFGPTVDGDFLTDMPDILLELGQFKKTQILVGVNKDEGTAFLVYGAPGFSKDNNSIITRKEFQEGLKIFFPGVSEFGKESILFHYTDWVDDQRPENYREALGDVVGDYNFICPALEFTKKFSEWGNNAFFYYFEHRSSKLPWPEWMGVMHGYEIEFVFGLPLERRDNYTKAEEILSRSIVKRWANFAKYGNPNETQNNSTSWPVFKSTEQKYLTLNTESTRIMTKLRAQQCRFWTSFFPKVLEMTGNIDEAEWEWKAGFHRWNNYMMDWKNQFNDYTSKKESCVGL
T2 sequence (P05067 672-711 limits assumed): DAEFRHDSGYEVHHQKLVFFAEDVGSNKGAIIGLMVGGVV

SMILES	IC50 [1] [µM]	IC50 [2] [µM]	IC50 [3] [µM]	IC50 [4] [µM]	inhibition mechanism on hAChE [5]	Ki [5] [µM]	IC50 [5] [µM]	% inhibition hBChE [6]	inhibition at 100 µM [7] [%]	inhibition at 10 µM [5] [%]	IC50 [7] [µM]	IC50 (human MAO A) [µM]	inhibition at 10 µM (human MAO B) [%]	IC50 at 72 h (in vitro; SH-SY5Y neuroblastoma cells) [µM]	IC50 [8] [µM]	hAChE potency relative to the reference compound galantamine ([5]; 14 vs galantamine)	inhibition at 10 µM ([6]; read-out: % inhibition hBChE) [%]	fold stronger inhibition of Aβ40 aggregation than the respective mono-DHPPIQ Schiff base 9 ([7]; ratio of IC50 values, 14 vs 9) [fold]	IC50 at 72 h (in vitro) [µM]
COc1cc2c(cc1OC)-c1c(-c3ccc(Cl)cc3)c(C=O)c(-c3ccccc3)n1CC2 [Compound 4]	163 ± 20	252 ± 11	109 ± 5	105 ± 11	noncompetitive/mixed-type mechanism	3.58 ± 0.04	7.9 ± 0.13	n.i.	35 ± 6										
COc1cc2c(cc1OC)-c1c(-c3ccc(F)cc3)c(C=O)cn1CC2 [Compound 5]	17.8 ± 0.4	32.2 ± 0.3	33.8 ± 1	41.3 ± 2				n.i.		33 ± 4									
COc1cc2c(cc1OC)-c1c(-c3ccc(Cl)cc3)c(C=O)cn1CC2 [Compound 3]	17.6 ± 3.2	22 ± 4	33 ± 4.5	38.6 ± 3.2				n.i.		32 ± 3	66 ± 2.2								
COc1cc2c(cc1OC)-c1c(-c3ccc(F)cc3)c(C=O)c(-c3ccccc3)n1CC2 [Compound 6]	91.1 ± 10.9	261 ± 13																	
COc1ccc(/N=C/c2cn3c(c2-c2ccc(F)cc2)-c2cc(OC)c(OC)cc2CC3)cc1 [Compound 11, (E)-1-(1-(4-fluorophenyl)-8,9-dimethoxy-5,6-dihydropyrrolo[2,1-a]isoquinolin-2-yl)-N-(4-methoxyphenyl)methanimine]	145 ± 1	114 ± 4	87.2 ± 1.1	153 ± 2.2				n.i.		40 ± 2	54 ± 2.2	18.1 ± 1.2	22 ± 4	56.1 ± 2.4					
COc1ccc(/N=C/c2c(-c3ccc(Cl)cc3)c3n(c2-c2ccccc2)CCc2cc(OC)c(OC)cc2-3)cc1 [Compound 10, (E)-1-(1-(4-chlorophenyl)-8,9-dimethoxy-3-phenyl-5,6-dihydropyrrolo[2,1-a]isoquinolin-2-yl)-N-(4-methoxyphenyl)methanimine]		211 ± 9						n.i.	42 ± 5	35 ± 7									
CCOc1ccc(-c2c(/C=N/CC/N=C/c3cn4c(c3-c3ccc(OCC)c(OCC)c3)-c3cc(OCC)c(OCC)cc3CC4)cn3c2-c2cc(OCC)c(OCC)cc2CC3)cc1OCC [Compound 19, (1E,1’E)-N,N’-(ethane-1,2-diyl)bis(1-(1-(3,4-diethoxyphenyl)-8,9-diethoxy-5,6-dihydropyrrolo[2,1-a]isoquinolin-2-yl)methanimine)]	65.1 ± 7.3	401 ± 8	84 ± 1.3					n.i.	48 ± 3	37 ± 2					290 ± 12				
COc1cc2c(cc1OC)-c1c(-c3ccc(Cl)cc3)c(/C=N/c3ccc(/N=C/c4cn5c(c4-c4ccc(Cl)cc4)-c4cc(OC)c(OC)cc4CC5)cc3)cn1CC2 [Compound 14, (1E,1’E)-N,N’-(1,4-phenylene)bis(1-(1-[4-chlorophenyl]-8,9-dimethoxy-5,6-dihydropyrrolo[2,1-a]isoquinolin-2-yl)methanimine)]	269 ± 11	390 ± 16	310 ± 12	> 500	noncompetitive/mixed-type inhibition mechanism	4.69	7.3 ± 0.74				13 ± 1	12.1 ± 2.3	19 ± 5			tenfold less potent	13 ± 1	3.5	29.3 ± 0.1
COc1cc2c(cc1OC)-c1c(-c3ccc(Cl)cc3)c(/C=N/c3ccc(/N=C/c4c(-c5ccc(Cl)cc5)c5n(c4-c4ccccc4)CCc4cc(OC)c(OC)cc4-5)cc3)c(-c3ccccc3)n1CC2 [Compound 15a, (1E,1’E)-N,N’-(1,4-phenylene)bis(1-(1-[4-chlorophenyl]-8,9-dimethoxy-3-phenyl-5,6-dihydropyrrolo[2,1-a]isoquinolin-2-yl)methanimine)-1,4-diaminium dichloride]	149 ± 3	102 ± 5	93.4 ± 2.6	120 ± 3.5				n.i.		25 ± 3	50 ± 6.3				251 ± 17				
CCOc1ccc(-c2c(/C=N/c3ccc(OC)cc3)cn3c2-c2cc(OCC)c(OCC)cc2CC3)cc1OCC [Compound 7, (E)-1-(1-(3,4-diethoxyphenyl)-8,9-diethoxy-5,6-dihydropyrrolo[2,1-a]isoquinolin-2-yl)-N-(4-methoxyphenyl)methanimine]	132 ± 4	38.5 ± 6.6	34.9 ± 1.8	79.5 ± 6.8			20.2 ± 3.1	n.i.			78 ± 5.1				171 ± 12				
COc1cccc2c1C(=O)c1c(O)c3c(c(O)c1C2=O)C[C@@](O)(C(=O)CO)C[C@@H]3O[C@H]1C[C@H](N)[C@H](O)[C@H](C)O1 [Doxorubicin, reference compound]	0.29 ± 0.021	0.142 ± 0.011	0.892 ± 0.013	0.38 ± 0.021											1.75 ± 0.06				
CC[C@@]1(O)C(=O)OCc2c1cc1n(c2=O)Cc2cc3ccccc3nc2-1 [Camptothecin, reference compound]																			0.272 ± 0.01
CCOc1ccc(-c2c(/C=N/CCCN(C)C)cn3c2-c2cc(OCC)c(OCC)cc2CC3)cc1OCC.Cl.Cl [Compound 16a, (E)-N^1-((1-[3,4-diethoxyphenyl]-8,9-diethoxy-5,6-dihydropyrrolo[2,1-a]isoquinolin-2-yl)methylene)-N^3,N^3-dimethylpropane-1,3-diaminium chloride]	72.8 ± 4.6	60.5 ± 0.7	63.1 ± 3.1	85.1 ± 0.2				n.i.	48 ± 4	32 ± 2									
